What is called T/C is the ratio of treated to control.

We go through 25 molecules from patent publication US5284856A, “Oncogene-encoded kinases inhibition using 4-H-1-benzopyran-4-one derivatives” (Hoechst Aktiengesellschaft, priority 1988, dated 1994).

Assay [1] concerns T1, cAMP-dependent protein kinase.
T1 construct: purchased Sigma Chemical Co., St. Louis, Mo., USA
Kind of assay: 3',5'-cAMP-dependent protein kinase inhibition (catalytic sub-unit, kemptide substrate). The format is biochemical. The following applies: 40 μM ATP, 15 minutes at 30° C.; for inhibition at 45 µg/mL: pH 6.9, 45 μg/ml inhibitor, read-out: % inhibition of cAMP-dependent protein kinase at an inhibitor concentration of 45 μg/ml; for % inhibition of cAMP-dependent protein kinase at an inhibitor concentration of 45 μg/ml: 45 μg/ml inhibitor, pH 6.9, hydrochloride. Here is the method:
Assay for 3', 5'-cAMP-Dependent Protein Kinase Inhibition
The catalytic sub-unit of cAMP-dependent protein kinase (Sigma) was reconstituted as described by Sigma (Sigma Chemical Co., St. Louis, Mo., USA). The enzyme activity was measured with kemptide (Sigma) (Leu-Arg-Arg-Ala-Ser-Leu-Gly) as the substrate. The inhibitor was preincubated with the enzyme, substrate (190 μM), Mg^2+ (5 mM), 0.25 mg/ml of BSA and 3.75 mM of mercaptoethanol in 50 mM of MOPA (4-morpholinopropanesulfonic acid), pH 6.9. The reaction was initiated by adding γ-^32 P ATP (40 μM). After 15 minutes at 30° C., an aliquot amount was transferred to p81 ion exchange paper (2×2 cm; Whatman Paper Ltd., Great Britain), the paper was immersed in 75 mM H3 PO4, washed and dried, and the incorporation of ^32 P was determined by means of a liquid scintillation counter.

The subject of a further assay is LXF 529. Put plainly: SRC Tumor Test (implantation under renal capsule of nude mouse), bronchogenic carcinoma LXF 529. The format is in vivo, human tumor xenograft in nude mouse. The note with it: days 2-15. Here is the method:
(§1) Single cell suspensions (from cell culture A 549 or disaggregated human tumor xenografts LXF 529) in Beriplast (Behringwerke AG) were diluted 1:2 with RPMI 1640 supplemented with 15% FCS to a final cell concentration of 10^7 cells/50 μl. This suspension was sucked quickly into 50 μglass capillaries (diameter 1.5 mm), of which the inner walls had been moistered with a thrombin/CaCl2 solution (500 units thrombin in 1 ml 40 mmol CaCl2).
(§2) After solidification of the cell-fibrin mixture (about 5 min at RT) the fibrin clot has been removed from the glass capillary into a petridish by air pressure. The fibrin clot was cut into 2 mm pieces (≈5×10^5 cells per piece) and the pieces were stored in RPMI 1640 supplemented with 15% FCS until implantation.
(§3) A single fibrin piece was transferred under the renal capsule of a nude mouse and, subsequently, two perpendicular diameters of the implanted piece were measured by microscope with an ocular micrometer (day 0). The tumor size was calculated according to
b=diameter perpendicular to a
The substance was given i.v. or p.o. daily on day 2-15 with the maximal tolerable dose (MTD) and a dose 2/3 of the MTD value according to the pretests. 5 mice/group were used.
(§4) On day 21 after implantation the animals were sacrificed, the kidney was exteriorized and the tumor size was measured again. The effectivity of the test drug was calculated from the tumor growth inhibition.
The relative tumor size VR was calculated according the formula [formula] Vt =tumor size at the end of experiment (day 21) V0 =tumor size as day of implantation
Subsequently the median relative tumor size of the treated group (VT) was related to the corresponding median relative tumor size of controls (VC) according to the formula [formula] The statistical significance (p 0.05) of the antitumoral effects was calculated using the Wilcoxon U test.
For orientation: A xenograft is tissue or cells of one species grown in another, often human tumour cells in immunodeficient mice.

The next assay relates to A 549. Put plainly: SRC Tumor Test (implantation under renal capsule of nude mouse), bronchogenic carcinoma A 549. The format is in vivo. The note with it: days 2-15. Here is the method:
as §1, §2, §3
b=diameter perpendicular to a […]
as §4
The relative tumor size VR was calculated according the formula [formula] […]

Structures can show the parent of a compound that is named as a salt.

Consider `CN1CC[C@H](c2c(O)cc(O)c3c(=O)cc(-c4cccs4)oc23)[C@H](O)C1` (relative stereo) [2-thiophenyl (±), (±)-cis-5,7-dihydroxy-2-(2-thienyl)-8-[4-(3-hydroxy-1-methyl)piperidinyl]-4H-1-benzopyran-4-one], for which the inhibition at 45 µg/mL in assay [1] was determined as 14%.
As for `CN1CC[C@H](c2c(O)cc(O)c3c(=O)cc(-c4cccc(Br)c4)oc23)[C@H](O)C1` (relative stereo) [Exmp. 17, (±)-cis-5,7-Dihydroxy-2-(3-bromophenyl)-8-[4-(3-hydroxy-1-methyl)piperidinyl]-4H-1-benzopyran-4-one hydrochloride], the T/C in the assay with LXF 529 (LXF 529, 25 mg/kg/day i.v., n.s. = not significant (P > 0.05)) amounted to 81%; in the assay with LXF 529 (LXF 529, 35 mg/kg/day i.v.), 67%; in the assay with A 549 (A 549, 35 mg/kg/day i.v.) it was 70%; in the assay with A 549 (A 549, 100 mg/kg/day p.o.), 73%.
For the molecule `CN1CC[C@H](c2c(O)cc(O)c3c(=O)cc(-c4ccccc4)oc23)[C@H](O)C1` (single isomer, unassigned) [phenyl HCl (+), (+)-cis-5,7-dihydroxy-2-phenyl-8-[4-(3-hydroxy-1-methyl)piperidinyl]-4H-1-benzopyran-4-one hydrochloride], in assay [1], the “% inhibition of cAMP-dependent protein kinase at an inhibitor concentration of 45 μg/ml” value is 13%.
Regarding `CN1CCC(c2c(O)cc(O)c3c(=O)cc(-c4ccc(F)cc4)oc23)C(O)C1` (racemic) [4-fluorophenyl HCl (±)], the inhibition at 45 µg/mL in assay [1] came to 25%.
Turning to `CN1CC[C@H](c2c(O)cc(O)c3c(=O)cc(-c4ccccc4)oc23)[C@H](O)C1` (single isomer, unassigned) [phenyl HCl (-), (-)-cis-5,7-dihydroxy-2-phenyl-8-[4-(3-hydroxy-1-methyl)piperidinyl]-4H-1-benzopyran-4-one hydrochloride], the “% inhibition of cAMP-dependent protein kinase at an inhibitor concentration of 45 μg/ml” value in assay [1] was found to be 46%.
`CN1CC[C@H](c2c(O)cc(O)c3c(=O)cc(-c4cccnc4)oc23)[C@H](O)C1` (relative stereo) [3-pyridyl HCl (±), (±)-cis-5,7-dihydroxy-2-(3-pyridyl)-8-[4-(3-hydroxy-1-methyl)piperidinyl]-4H-1-benzopyran-4-one hydrochloride]: the inhibition at 45 µg/mL in assay [1] came out at 0%.
On the same count and under the same terms, for `CN1CC[C@H](c2c(O)cc(O)c3c(=O)cc(-c4ccccc4Cl)oc23)[C@H](O)C1` (single isomer, unassigned) [2-chlorophenyl HCl (+), (+)-cis-5,7-dihydroxy-2-(2-chlorophenyl)-8-[4-(3-hydroxy-1-methyl)piperidinyl]-4H-1-benzopyran-4-one hydrochloride] the value was 27%; for `CN1CCC(c2c(O)cc(O)c3c(=O)cc(-c4ccccc4F)oc23)C(O)C1` (racemic) [2-fluorophenyl HCl (±)], 0%; for `CN1CC[C@H](c2c(O)cc(O)c3c(=O)cc(-c4ccccc4)oc23)[C@H](O)C1` (relative stereo) [phenyl HCl (±), (±)-cis-5,7-dihydroxy-2-phenyl-8-[4-(3-hydroxy-1-methyl)piperidinyl]-4H-1-benzopyran-4-one hydrochloride], 48%.
Take `CN1CC[C@H](c2c(O)cc(O)c3c(=O)cc(-c4ccccc4Cl)oc23)[C@H](O)C1` (relative stereo) [2-chlorophenyl HCl (±), (±)-cis-5,7-dihydroxy-2-(2-chlorophenyl)-8-[4-(3-hydroxy-1-methyl)piperidinyl]-4H-1-benzopyran-4-one hydrochloride]: in assay [1], the inhibition at 45 µg/mL was found to be 29%.
The same measure, in the same setting: for `CN1CCC(c2c(O)cc(O)c3c(=O)cc(-c4ccc(Br)cc4)oc23)C(O)C1` (racemic) [4-bromophenyl HCl (±)] the value was 65%.
On the same count and under the same terms, next, `CCCc1cc(=O)c2c(O)cc(O)c(C3CCN(C)CC3O)c2o1` (racemic) [n-propyl HCl (±)]: 0%; `Cc1ccc(-c2cc(=O)c3c(O)cc(O)c([C@H]4CCN(C)C[C@H]4O)c3o2)cc1` (relative stereo) [4-methylphenyl HCl (±), (±)-cis-5,7-dihydroxy-2-(4-methylphenyl)-8-[4-(3-hydroxy-1-methyl)piperidinyl]-4H-1-benzopyran-4-one hydrochloride]: 55%.
Consider `CCc1cc(=O)c2c(O)cc(O)c(C3CCN(C)CC3O)c2o1` (racemic) [ethyl HCl (±)], for which the inhibition at 45 µg/mL in assay [1] is 0%.
Same read-out and setting: next, `CN1CCC(c2c(O)cc(O)c3c(=O)cc(-c4ccccc4Br)oc23)C(O)C1` (racemic) [2-bromophenyl (±)]: 63%.
As for `CN1CC[C@H](c2c(O)cc(O)c3c(=O)cc(-c4ccccc4Cl)oc23)[C@H](O)C1` (single isomer, unassigned) [Exmp. 9, (-)-cis-5,7-Dihydroxy-2-(2-chlorophenyl)-8-[4-(3-hydroxy-1-methyl)piperidinyl]-4H-1-benzopyran-4-one hydrochloride], the T/C with LXF 529 (LXF 529, 2 mg/kg/day i.v.) came out at 59%; with LXF 529 (LXF 529, 4 mg/kg/day i.v.), 51%.
Turning to `CN1CCC(c2c(O)cc(O)c3c(=O)cc(Cc4ccccc4Cl)oc23)C(O)C1` (racemic) [(2-chlorophenyl)methyl HCl (±)], in assay [1], the inhibition at 45 µg/mL amounted to 69%.
As for `CN1CC[C@H](c2c(O)cc(O)c3c(=O)cc(-c4ccc5ccccc5c4)oc23)[C@H](O)C1` (relative stereo) [2-naphthyl HCl (±), (±)-cis-5,7-dihydroxy-2-(2-naphthyl)-8-[4-(3-hydroxy-1-methyl)piperidinyl]-4H-1-benzopyran-4-one hydrochloride], the inhibition at 45 µg/mL in assay [1] amounted to 0%.
For the molecule `CN1CC[C@H](c2c(O)cc(O)c3c(=O)cc(-c4ccc(O)cc4)oc23)[C@H](O)C1` (relative stereo) [Exmp. 19, (±)-cis-5,7-Dihydroxy-2-(4-hydroxyphenyl)-8-[4-(3-hydroxy-1-methyl)piperidinyl]-4H-1-benzopyran-4-one], the T/C turned out to be 98% in the assay on LXF 529 (LXF 529, 100 mg/kg/day i.v., n.s. = not significant (P > 0.05)) and 80% in the assay with LXF 529 (LXF 529, 150 mg/kg/day i.v.).
For `CN1CC[C@H](c2c(O)cc(O)c3c(=O)cc(-c4ccncc4)oc23)[C@H](O)C1` (relative stereo) [4-pyridyl HCl (±), (±)-cis-5,7-dihydroxy-2-(4-pyridyl)-8-[4-(3-hydroxy-1-methyl)piperidinyl]-4H-1-benzopyran-4-one hydrochloride], in assay [1], the inhibition at 45 µg/mL is 12%.
Still for that read-out and setting: for `CN1CCC(c2c(O)cc(O)c3c(=O)cc(-c4ccc(-c5ccccc5)cc4)oc23)C(O)C1` (racemic) [4-biphenyl HCl (±)] the value was 37%.
Turning to `CN1CC[C@H](c2c(O)cc(O)c3c(=O)cc(-c4ccccn4)oc23)[C@H](O)C1` (relative stereo) [2-pyridyl HCl (±), (±)-cis-5,7-dihydroxy-2-(2-pyridyl)-8-[4-(3-hydroxy-1-methyl)piperidinyl]-4H-1-benzopyran-4-one hydrochloride], the inhibition at 45 µg/mL in assay [1] was determined as 0%.
The same measure, in the same setting: next, `CCCc1cc(=O)c2c(O)cc(O)c(C3CCN(C)CC3O)c2o1` (single isomer, unassigned) [n-propyl HCl (-)]: 5%; `CN1CC[C@H](c2c(O)cc(O)c3c(=O)cc(-c4ccccn4)oc23)[C@H](O)C1` (single isomer, unassigned) [2-pyridyl HCl (-), (-)-cis-5,7-dihydroxy-2-(2-pyridyl)-8-[4-(3-hydroxy-1-methyl)piperidinyl]-4H-1-benzopyran-4-one hydrochloride]: 6%.
Still for that read-out and setting: next, `CN1CCC(c2c(O)cc(O)c3c(=O)cc(-c4ccc(Cl)cc4)oc23)C(O)C1` (racemic) [4-chlorophenyl HCl (±)]: 37%.
